The structures appear in SMILES notation.

One test concerns A-431. The test is described as follows: Antiproliferative activity against human A431 cells overexpressing EGFR after 72 hrs by MTT assay. As to conditions: A-431, 72 h. In general terms: Formazan colour is commonly taken as a measure of viable cells.
Another test relates to NIH3T3. The test is described as follows: Antiproliferative activity against mouse NIH/3T3 cells after 72 hrs by MTT assay. As to conditions: NIH3T3, 72 h.
Test [1] addresses Epidermal growth factor receptor (Homo sapiens, UniProt P00533). Nature of the test: Inhibition of EGFR after 50 mins by HTRF assay. On the technique in general: Time-resolved FRET reads energy transfer from a long-lived donor to a nearby acceptor.

Sequence of Epidermal growth factor receptor (P00533 whole entry): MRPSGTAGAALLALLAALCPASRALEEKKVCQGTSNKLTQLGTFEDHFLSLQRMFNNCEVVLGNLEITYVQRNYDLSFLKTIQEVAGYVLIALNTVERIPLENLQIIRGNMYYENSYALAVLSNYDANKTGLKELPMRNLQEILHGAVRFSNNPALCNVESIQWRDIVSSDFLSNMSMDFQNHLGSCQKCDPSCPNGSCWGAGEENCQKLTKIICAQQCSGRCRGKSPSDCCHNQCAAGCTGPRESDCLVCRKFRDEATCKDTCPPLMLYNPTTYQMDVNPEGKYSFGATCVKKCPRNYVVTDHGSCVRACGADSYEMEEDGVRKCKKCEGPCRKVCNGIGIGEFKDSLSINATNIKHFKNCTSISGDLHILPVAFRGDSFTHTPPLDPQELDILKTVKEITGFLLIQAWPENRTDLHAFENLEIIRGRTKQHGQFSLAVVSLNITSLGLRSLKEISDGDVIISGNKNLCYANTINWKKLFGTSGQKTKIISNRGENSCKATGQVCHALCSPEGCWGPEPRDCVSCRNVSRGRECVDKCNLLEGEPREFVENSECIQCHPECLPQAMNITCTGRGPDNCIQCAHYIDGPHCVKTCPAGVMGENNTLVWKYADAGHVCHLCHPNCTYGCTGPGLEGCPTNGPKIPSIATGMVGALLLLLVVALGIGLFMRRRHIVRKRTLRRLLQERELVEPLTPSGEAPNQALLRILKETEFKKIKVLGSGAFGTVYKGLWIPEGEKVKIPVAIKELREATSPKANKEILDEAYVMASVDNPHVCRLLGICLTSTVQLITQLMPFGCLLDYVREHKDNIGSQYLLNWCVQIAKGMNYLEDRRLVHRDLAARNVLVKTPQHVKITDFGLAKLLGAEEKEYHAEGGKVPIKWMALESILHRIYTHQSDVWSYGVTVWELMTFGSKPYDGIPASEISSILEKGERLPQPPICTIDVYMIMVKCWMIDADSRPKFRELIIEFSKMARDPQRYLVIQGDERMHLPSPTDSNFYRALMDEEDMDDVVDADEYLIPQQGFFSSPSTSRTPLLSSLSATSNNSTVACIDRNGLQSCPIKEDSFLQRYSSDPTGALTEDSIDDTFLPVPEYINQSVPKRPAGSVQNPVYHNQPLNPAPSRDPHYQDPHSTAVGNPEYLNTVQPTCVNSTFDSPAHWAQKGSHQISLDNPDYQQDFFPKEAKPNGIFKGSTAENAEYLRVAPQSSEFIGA

Take `O=C1NN(c2ccc(F)c(Cl)c2)C(=O)/C1=C\c1cccc(OC(=O)c2cccs2)c1`: the values for the IC50 (in the test on A-431; in the test on NIH3T3; in test [1]) were 23.2 µM, 28.2 µM and 3.5 µM, respectively.

As to `O=S(=O)(c1ccc(/N=C/c2cc(Br)ccc2O)cc1)N1CCCCC1`, the IC50 (as a rule, the midpoint of a concentration-inhibition curve) is 39.6 µM in the test on A-431, over 50 µM in the test on NIH3T3 and 9.7 µM in test [1].

In the test on NIH3T3, `Cc1ccc(N2NC(=O)/C(=C\c3ccc(-c4cc([N+](=O)[O-])ccc4O)o3)C2=O)cc1C` registered an IC50 of 37.2 µM.

As to `O=C(Cc1ccc(F)cc1)Nc1cc(SC[C@@H](O)CO)cc([N+](=O)[O-])c1`, the IC50 in the test with A-431 was 26.8 µM; with NIH3T3, over 50 µM; in test [1] it was 48.6 µM.

Take `O=C(Cn1c(-c2ccccc2)cc(=O)n2ncnc12)NNC(=S)Nc1ccccc1`: the IC50 in the test on A-431 turned out to be 19.4 µM; in the test with NIH3T3, 20 µM; in test [1] it was 6.8 µM.

For the compound `Cc1cccc(N2NC(=O)/C(=C/c3ccc(-c4ccccc4F)o3)C2=O)c1`, the IC50 in the test with A-431 was 30 µM; with NIH3T3, over 50 µM; in test [1] it was 23.1 µM.

Consider `CCOc1ccc(-c2cc(C(F)(F)F)c(C#N)c(SCC(=O)NCC(=O)O)n2)cc1`, for which the 50% inhibitory concentration (IC50) in the test on A-431 is over 50 µM; in the test on NIH3T3, over 50 µM; in test [1], 8.4 µM.

As for `Cn1c(NCc2cccc(C(F)(F)F)c2)cc(=O)n(C)c1=O`, the IC50 was over 50 µM with A-431, over 50 µM with NIH3T3 and 83.9 µM in test [1].

In the case of `O=C1NN(c2ccc(F)cc2)C(=O)/C1=C\c1cccc(OCc2ccccc2F)c1`, the 50% inhibitory concentration (IC50) turned out to be 18.9 µM in the test with A-431, 23.1 µM in the test on NIH3T3 and 5.6 µM in test [1].

`Cc1nn(C)cc1C(=O)Nc1ccn(Cc2c(F)cccc2Cl)n1` returned an IC50 in the test with NIH3T3 of over 50 µM.

As for `C=C(N/N=C/c1cn[nH]c1-c1ccccc1)[C@H](C)Cc1ccccc1`, in the test on NIH3T3, the half-inhibitory concentration (IC50) was over 50 µM.

As for `Cc1ccc(N2NC(=O)/C(=C/c3ccc(OCc4ccccc4)cc3)C2=O)cc1Cl`, the half-inhibitory concentration (IC50) in the test on A-431 was determined as 14 µM; in the test with NIH3T3, 41.3 µM; in test [1], 8.6 µM.

Regarding `Nc1nn2c(=O)cc(-c3ccccc3)[nH]c2c1/N=N/c1ccc2c(c1)OCO2`, the IC50 in the test on A-431 was 16.7 µM; in the test with NIH3T3 it was 46 µM; in test [1], 5.3 µM.

In turn, `CS(=O)(=O)CCNCc1ccc(-c2ccc3ncnc(Nc4ccc(OCc5cccc(F)c5)c(Cl)c4)c3c2)o1` [LAPATINIB] displayed an IC50 with NIH3T3 of 4.3 µM.

Source of the values: ChEMBL document CHEMBL2029299, “Discovery of novel EGFR tyrosine kinase inhibitors by structure-based virtual screening” (Bioorg Med Chem Lett, 2012).
